Experimental data: ChEMBL document CHEMBL1201862, “PubChem BioAssay data set” (2004)
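Following 48 hours of exposure in 96-well plates, responses at five concentrations were used to interpolate endpoints linearly. GI50 = concentration required for 50% inhibition of growth.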 The source made the active and inactive calls. No stated cut-off is given here; in the data, active = GI50 up to about 1.1 µM and inactive = higher.

Key:
Assay in all cases: NCI tumour cell line growth inhibition, 48 h
786-0 = test system: 786-0
A498 = test system: A498
A549 = test system: A549
ACHN = test system: ACHN
BT-549 = test system: BT-549
CAKI-1 = test system: CAKI-1
CCRF-CEM = test system: CCRF-CEM
COLO 205 = test system: COLO 205
DU-145 = test system: DU-145
EKVX = test system: EKVX
HCC 2998 = test system: HCC 2998
HCT-116 = test system: HCT-116
HCT-15 = test system: HCT-15
HL-60 = test system: HL-60
HOP-62 = test system: HOP-62
HOP-92 = test system: HOP-92
HT-29 = test system: HT-29
Hs-578T = test system: Hs-578T
IGROV-1 = test system: IGROV-1
K562 = test system: K562
KM12 = test system: KM12
LOX IMVI = test system: LOX IMVI
M14 = test system: M14
MCF7 = test system: MCF7
MDA-MB-231 = test system: MDA-MB-231
MDA-MB-435 = test system: MDA-MB-435
MDA-N = test system: MDA-N
MOLT-4 = test system: MOLT-4
Malme-3M = test system: Malme-3M
NCI-H226 = test system: NCI-H226
NCI-H23 = test system: NCI-H23
NCI-H460 = test system: NCI-H460
NCI-H522 = test system: NCI-H522
NCI/ADR-RES = test system: NCI/ADR-RES
OVCAR-3 = test system: OVCAR-3
OVCAR-4 = test system: OVCAR-4
OVCAR-5 = test system: OVCAR-5
OVCAR-8 = test system: OVCAR-8
PC-3 = test system: PC-3
RPMI-8226 = test system: RPMI-8226
RXF 393 = test system: RXF 393
SF-268 = test system: SF-268
SF-295 = test system: SF-295
SF-539 = test system: SF-539
SK-MEL-28 = test system: SK-MEL-28
SK-MEL-2 = test system: SK-MEL-2
SK-MEL-5 = test system: SK-MEL-5
SK-OV-3 = test system: SK-OV-3
SN12C = test system: SN12C
SNB-19 = test system: SNB-19
SNB-75 = test system: SNB-75
SR = test system: SR
SW-620 = test system: SW-620
T47D = test system: T47D
TK-10 = test system: TK-10
U-251 = test system: U-251
UACC-257 = test system: UACC-257
UACC-62 = test system: UACC-62
UO-31 = test system: UO-31

c1ccc(C2C(=P(c3ccccc3)(c3ccccc3)c3ccccc3)P=PC2[P+](c2ccccc2)(c2ccccc2)c2ccccc2)cc1.c1ccc([B-](c2ccccc2)(c2ccccc2)c2ccccc2)cc1 (stereo not drawn)
GI50 (786-0): 0.289 µM (active) | GI50 (A498): 0.818 µM (active) | GI50 (A549): 0.422 µM (active) | GI50 (ACHN): 0.701 µM (active) | GI50 (BT-549): 0.721 µM (active) | GI50 (CAKI-1): 3.66 µM (inactive) | GI50 (CCRF-CEM): 2.25 µM (inactive) | GI50 (COLO 205): 0.202 µM (active) | GI50 (DU-145): 0.5 µM (active) | GI50 (EKVX): 4.79 µM (inactive) | GI50 (HCC 2998): 0.593 µM (active) | GI50 (HCT-116): 0.0841 µM (active) | GI50 (HCT-15): 28.1 µM | GI50 (HL-60): 0.107 µM (active) | GI50 (HOP-62): 0.841 µM (active) | GI50 (HOP-92): 0.555 µM (active) | GI50 (HT-29): 0.354 µM (active) | GI50 (Hs-578T): 0.679 µM (active) | GI50 (IGROV-1): 0.57 µM (active) | GI50 (K562): 0.173 µM (active) | GI50 (KM12): 0.351 µM (active) | GI50 (LOX IMVI): 0.333 µM (active) | GI50 (M14): 0.286 µM (active) | GI50 (MCF7): 0.543 µM (active) | GI50 (MDA-MB-231): 0.39 µM (active) | GI50 (MDA-MB-435): 0.171 µM (active) | GI50 (MDA-N): 0.139 µM (active) | GI50 (MOLT-4): 1.63 µM (inactive) | GI50 (Malme-3M): 1.78 µM (inactive) | GI50 (NCI-H226): 1.11 µM (active) | GI50 (NCI-H23): 0.351 µM (active) | GI50 (NCI-H460): 0.447 µM (active) | GI50 (NCI-H522): 0.424 µM (active) | GI50 (NCI/ADR-RES): 3.48 µM (inactive) | GI50 (OVCAR-3): 0.579 µM (active) | GI50 (OVCAR-4): 0.652 µM (active) | GI50 (OVCAR-5): 2.97 µM (inactive) | GI50 (OVCAR-8): 0.252 µM (active) | GI50 (PC-3): 0.471 µM (active) | GI50 (RPMI-8226): 0.278 µM (active) | GI50 (RXF 393): 0.285 µM (active) | GI50 (SF-268): 0.695 µM (active) | GI50 (SF-295): 0.492 µM (active) | GI50 (SF-539): 0.656 µM (active) | GI50 (SK-MEL-28): 1.85 µM (inactive) | GI50 (SK-MEL-2): 0.675 µM (active) | GI50 (SK-MEL-5): 0.191 µM (active) | GI50 (SK-OV-3): 1.85 µM (inactive) | GI50 (SN12C): 0.507 µM (active) | GI50 (SNB-19): 0.313 µM (active) | GI50 (SNB-75): 0.582 µM (active) | GI50 (SR): 0.966 µM (active) | GI50 (SW-620): 0.767 µM (active) | GI50 (T47D): 0.191 µM (active) | GI50 (TK-10): 0.762 µM (active) | GI50 (U-251): 0.176 µM (active) | GI50 (UACC-257): 1.12 µM (inactive) | GI50 (UACC-62): 2.44 µM (inactive) | GI50 (UO-31): 18.8 µM (inactive)

CCOc1cc2c(NCCCN(CCO)CCO)ncnc2c(OCC)c1OCC
GI50 (786-0): > 100 µM (inactive) | GI50 (A498): > 73.5 µM (inactive) | GI50 (A549): > 94.4 µM (inactive) | GI50 (ACHN): > 100 µM (inactive) | GI50 (BT-549): > 76.4 µM (inactive) | GI50 (CAKI-1): > 100 µM (inactive) | GI50 (CCRF-CEM): > 100 µM (inactive) | GI50 (COLO 205): 69.3 µM (inactive) | GI50 (DU-145): > 100 µM (inactive) | GI50 (EKVX): > 100 µM (inactive) | GI50 (HCC 2998): 22 µM (inactive) | GI50 (HCT-116): > 100 µM (inactive) | GI50 (HCT-15): > 100 µM | GI50 (HL-60): > 89.1 µM (inactive) | GI50 (HOP-62): > 100 µM (inactive) | GI50 (HOP-92): 34.3 µM (inactive) | GI50 (HT-29): > 65.6 µM (inactive) | GI50 (Hs-578T): 82.2 µM (inactive) | GI50 (IGROV-1): > 100 µM (inactive) | GI50 (K562): > 100 µM (inactive) | GI50 (KM12): > 100 µM (inactive) | GI50 (LOX IMVI): > 100 µM (inactive) | GI50 (M14): > 83.2 µM (inactive) | GI50 (MCF7): > 100 µM (inactive) | GI50 (MDA-MB-231): > 93.1 µM (inactive) | GI50 (MDA-MB-435): > 100 µM (inactive) | GI50 (MDA-N): > 100 µM (inactive) | GI50 (MOLT-4): > 87.1 µM (inactive) | GI50 (Malme-3M): 55.6 µM (inactive) | GI50 (NCI-H226): 21.7 µM (inactive) | GI50 (NCI-H23): > 100 µM (inactive) | GI50 (NCI-H460): > 100 µM (inactive) | GI50 (NCI-H522): > 100 µM (inactive) | GI50 (NCI/ADR-RES): > 100 µM (inactive) | GI50 (OVCAR-3): > 100 µM (inactive) | GI50 (OVCAR-4): > 88.5 µM (inactive) | GI50 (OVCAR-5): > 100 µM (inactive) | GI50 (OVCAR-8): > 100 µM (inactive) | GI50 (PC-3): > 100 µM (inactive) | GI50 (RPMI-8226): > 100 µM (inactive) | GI50 (RXF 393): > 82 µM (inactive) | GI50 (SF-268): > 100 µM (inactive) | GI50 (SF-295): > 100 µM (inactive) | GI50 (SF-539): > 100 µM (inactive) | GI50 (SK-MEL-28): > 62.5 µM (inactive) | GI50 (SK-MEL-2): > 87.3 µM (inactive) | GI50 (SK-MEL-5): > 100 µM (inactive) | GI50 (SK-OV-3): > 100 µM (inactive) | GI50 (SN12C): > 100 µM (inactive) | GI50 (SNB-19): > 100 µM (inactive) | GI50 (SNB-75): > 74.8 µM (inactive) | GI50 (SR): > 100 µM (inactive) | GI50 (SW-620): > 100 µM (inactive) | GI50 (T47D): > 90.4 µM (inactive) | GI50 (TK-10): > 100 µM (inactive) | GI50 (U-251): > 100 µM (inactive) | GI50 (UACC-257): > 83.2 µM (inactive) | GI50 (UACC-62): > 100 µM (inactive) | GI50 (UO-31): > 100 µM (inactive)
